The source of these data is PMC9256669, “Monomethyl auristatin antibody and peptide drug conjugates for trimodal cancer chemo-radio-immunotherapy” (Nature Communications, 2022).

One data set relates to B16 cells. Briefly: Cell cycle analysis. It is filed as cell-based, murine. The note with it: for G2/M fraction: Figure 3c, single replicates. As to the method: Cells were MMAE treated for 24 h, fixed in 70% ethanol, stained with FxCyclePI/RNase solution (Life Technologies), and then analyzed by FACS using FlowJo software.
A short description of data set [1]: Blood clearance of Cy5-labeled CDX3379-MMAE (blood Cy5). The following applies: immune-deficient and immune-competent mice, i.v. Cy5-labeled CDX3379-MMAE, Cy5 as surrogate marker. The data set is classed as in vivo, Nude mice. As to the method:
All animal work was done in compliance with the University of California San Diego Institutional Animal Use and Care Committee under protocol #S15290. Mice were housed in individually ventilated and micro-isolator cages supplied with acidified water and fed 5053 irradiated PicoLab Rodent Diet 20. Temperature for laboratory mice in housing was 18–23 °C with humidity 40–60%. Housing room is maintained on a 12-h light/dark cycle. […] For imaging, mice were anesthetized (1:1 mixture of 100 mg/ml of ketamine and 5 mg/ml of midazolam). Animals were imaged using a Maestro Small Animal Imager (CRI) with excitation filter of 607/36 and 633 nm long pass emission filter with dichroic filter tuned to 670 nm for Cy5 images only. Imaging was done both with skin on and after skin removal to decrease autofluorescence and scattering. Exposure time for Cy5 signal capture for tumor models was as follows: CAL27 for 800 ms, MOC1 for 200 ms and MOC2 for 1500 ms.

The test system of data set [2] is CAL27 parental (WT) tumors. Briefly: Orthotopic tongue tumor xenograft therapy. The following applies: single 2.5 nmole injection. It is filed as in vivo, human cells in NOD SCID mice. From the text:
(§1) Orthotopic tongue xenograft tumors were established in 6-week-old NOD SCID mice by injecting 150,000 CAL27 parental (WT) or PIK3CA H1047R-expressing cells. […] On the last day of tumor xenograft measurements, mice were euthanized, tongues resected, imaged, and fixed. […] IR was delivered as 2 parallel opposed fields. […]
(§2) Tumor cells Ab/ADC Ab/ADC CDX3379-MMAE
(§3) Supplementary Figure 7: CDX3379-MMAE ADC efficacy in tumor xenografts.
(§4) CAL27 parental (WT) or HER3 resistant (PIK3CA H1047R) tumor xenografts established in murine tongues on day 0. a) On day 7, mice i.v. injected with 2.5 nmoles […]
(§5) On the last day of tumor measurement
(§6) (day 16 for WT, day 14 for PIK3CA H1047R tumors), tongues resected, fixed and sectioned. Tissues stained for Ki-67 (Abcam, ab16667) by IHC and counterstained with hematoxylin. Data is representative of 6 independent tumors per tumor cell line and treatment. b) Mice with orthotopic tongue CAL27 PIK3CA H1047R tumors were […]
(§7) MMAE ADC on day 6 and day 8 (n= 6 tumors/group). On the last day of tumor measurements, tongues were resected, fixed, longitudinally sectioned and H&E stained.
(§8) Source data are provided in Source Data file.
(§9) (also on this page, place not known: CAL27-WT CAL27-Resistant UntreatedCDX3379CDX3379 -MMAE 07142128 volume (mm3) Tumor tipTongue a)On i.v.injected)
For orientation: In xenograft studies the graft and the host belong to different species.

Data set [3] deals with CAL27 resistant (PIK3CA H1047R) tumors. Briefly: Orthotopic tongue tumor xenograft therapy. The note with it: PIK3CA H1047R-expressing CAL27 orthotopic tongue tumors. The data set is classed as in vivo, human cells in NOD SCID mice.
Description: as §1, §2, §3, §4, §5, §6, §7, §8, §9

The test system of the next data set is MOC1 tumors. The data set can be described thus: Subcutaneous tumor therapy, ADC monotherapy, mouse survival. It is filed as in vivo, C57BL/6 mice.
In data set [4] the test system is B16 tumors. The note with it: status at the day printed in the same line, one line per mouse.
Description: (§10) MOC1, B16, LL/2, and MC38 tumor cells were injected subcutaneously into the hindlimbs of 6-week-old female C57BL/6 albino mice in 100 µl of 1:1 Matrigel (BD) and PBS solution. Fractionated IR was delivered focally to the tumor-bearing hindlimbs (3 Gy to MC38 tumors and 5 Gy to LL/2 and B16 tumors) as indicated in figure legends using a PXI X-RAD 225 XL irradiator at maximal dose rate of 3 Gy/min with a beam-conditioning aluminum filter (Precision X-ray Irradiation). For RAG1 KO studies, 6-week-old female Rag1^tm1Mom mice were injected subcutaneously with tumor cells in their hindlimbs (Jackson Labs). For CD8 depletion studies, mice were i.p. injected with anti-CD8 (BioXCell #BE0117) at 10 mg/kg on days −6, −5 and −4 tumor cell implant and then weekly starting on day after tumor cells were injected or control antibody. […] Tumor volumes were measured and calculated using the formula as ½ * length * width^2. Mice were sacrificed when tumor volume reached >1500 mm^3, maximal tumor volume approved on our protocol for subcutaneous tumors.
A short description of data set [5]: Tumor drug measurement (MMAE by LC-MS/MS) after ACPP-MMAE. The data set is classed as in vivo, mouse. The note with it: LL/2 and B16 tumors, 10 nmoles ACPP-MMAE i.v. The protocol:
For CDX3379-MMAE drug measurements, 6-week-old female NOD SCID (University of California San Diego Animal Care Program) were injected orthotopically into the tongue with 150,000 CAL27 PIK3CA H1047R expressing cells in 20 µl of DMEM. After 10 days, mice were intravenously (i.v.) injected through the tail vein with 2.5 nmole of CDX3379-MMAE in 50 µl of PBS. […] Tumors were excised on days indicated in figure legends, weighed, and homogenized in 10 v/w of 2% acetic acid in 1:1 acetonitrile:water with a point sonicator (Fisher Scientific) using an amplitude range of 5–15% for 20 s on ice. Homogenates were centrifuged ([…], 10 min), supernatants collected for drug concentration measurements using LC–MS/MS. Drug concentration was determined by LC–MS/MS with Luna-2 C18 column and Agilent Trap XCT mass spectrometer. For MMAE tissue concentrations, integrated ion currents for m/z 682.4, 496.4 and m/z 686.4, 506.4 extracted from fragmented m/z 740.4 and 718.4, respectively, were combined. The total ion current was fit to a standard curve generated for each drug to quantitate tissue drug concentration.

In data set [6] the test system is B16 tumors. The arrangement: species or system RAG1 KO mice. The following applies: mouse, in vivo. The protocol: FSC-A FSC-H SCC-H Live Dead-Blue
Representative flow cytometry plots to gate immune cells quantitated in Fig. 4a, b, 4d &
Supplementary Fig. 10b, c. b) Quantification of tumor immune cell identified by flow cytometry on
Tumors harvested on day 19 and immune cells characterized by flow cytometry. c) Tumor
granzyme B expression. Characterized CD8+ T-cells were further gated for granzyme-B staining
(Clone:GB11). In addition, RNA levelsof tumor granzyme-B was analyzed by qPCR. For
Mice implanted with tumor
Log-rank (Mantel-Cox) test.
Source data are provided in Source Data file. […]

Data set [7] is described as follows: Mouse body weight (safety of MMAE with IR, with or without anti-PD-1). The note with it: ACPP-MMAE and IR.
Description: LL/2 cells treated with dose range of MMAE overnight and then […] in drug free media for 7-10 days to allow for visualized colonies to form.
Statistical significances calculated using one-way ANOVA with Tukey’s multiple comparisons test. 0.9 b) Cell cycle analysis […]
of MMAE treated LL/2 cells, mean ± SD, n=2. […]
experiments. c) Clonogenic survival of LL/2 cells treated with MMAE and 2 Gy (SF2). Cell Days viability normalized to non-irradiated cells for each drug condition and plotted as mean fractional survival ± SEM, n=6. Statistical significances calculated using one-way ANOVA with Sidak’s multiple comparisons test. d) Tumor volumes (n=10) and mouse body weights (n=5) of mice from experiments in Fig. 3e. Tumor volumes plotted as mean volume of surviving mice ± SEM.
Mouse body weight were normalized to each mouse’s weight on day 0, i.e. tumor implantation.
Data plotted as mean fractional body weight ± SEM. e) Mouse body weights of mice (n=5) from experiments in Fig. 4h were normalized to each mouse’s weight on day of tumor implantation.
Data is plotted as individual normalized body weights. f) Mouse body weights of mice from experiments in Fig. 5e, f were normalized to each mouse’s weight on day of tumor implantation.
as §8

Where “and” joins values, the source holds several entries; their conditions need not be identical. Equal values may be shown once. Read-outs that look alike come from different tables or passages of the source. Non-standard residues stand in square brackets, D forms with d. Residues, ends and D or L forms follow the SMILES beside them. *: point of attachment. Dolaproine = CO[C@@H]([C@@H]1CCCN1)[C@@H](C)C(=O)O; Dil = CC[C@H](C)[C@H](NC)[C@@H](CC(=O)O)OC; X1 = C[C@@H](N*)[C@@H](O)c1ccccc1; NMeV = CN[C@H](C(=O)O)C(C)C

Description for MOC1 tumors: as §10

In the case of `CC[C@H](C)[C@@H]([C@@H](CC(=O)N1CCC[C@H]1[C@H](OC)[C@@H](C)C(=O)N[C@H](C)[C@@H](O)c1ccccc1)OC)N(C)C(=O)[C@@H](NC(=O)[C@@H](NC)C(C)C)C(C)C` [MMAE, monomethyl auristatin E] (H-[NMeV]V[Dil][Dolaproine]-X1), the G2/M fraction in the data set on B16 cells (MMAE 1 nM) is 0.13 and 0.12; in the data set on B16 cells (MMAE 2 nM), 0.12 and 0.14; with B16 cells (MMAE 5 nM), 0.23 and 0.25; with B16 cells (MMAE 10 nM) it was 0.73 and 0.76. Moreover, in the data set with B16 cells (MMAE-treated cells), the cell cycle effect result is “arresting cells in the radiosensitive mitotic phase of the cell cycle”.
As for “CDX3379-MMAE: anti-HER3 antibody CDX3379 with 4 MMAE per antibody via MC-VC-PABC linker, labeled with Cy5”, the “time at which blood Cy5 signal returned to background fluorescence” value in [1] is at most 7 days. For the same compound, in data set [2], the “tumor growth (tumor volume, Ki-67)” value is on record as “further enhanced”. Further, the tumor growth result in data set [3] was “significant growth delay”. In the data set with MOC1 tumors, the “anti-tumor activity as measured by mouse survival” value was “modest anti-tumor activity”. The “Survival curve, status” value in the data set with B16 tumors [4] (CDX3379-MMAE + IR + αPD1) is 0; in the data set with B16 tumors [4] (CDX3379-MMAE + IR) it was 0 and 1.
In the case of “cyclo(RGD)fc-MC-HN-peg8-e9-oPLGC(Me)AG-r9-c-(MC-VC-PABC-MMAE)-CONH2 [ACPP-MMAE]”, the “release of conjugated drug warhead in tumors” value in [5] is “efficiently released its conjugated drug warhead equally in LL/2 and B16 tumors”. The “tumor control in RAG1 KO mice” value in the data set with B16 tumors [6] is recorded as “did not appreciably increase tumor control in RAG1 KO mice compared to IR alone”. Also, the “adverse effects on mouse well-being by body weight” value in [7] is reported as “no adverse effects”.
